The test system of series [1] is U87 cells. The series can be described thus: MTT cytotoxicity assay, U87. The settings on record: Homo sapiens, U-87 MG, 24 h, read-out: IC50, Glioblastoma, U87. It is filed as cell-based. On the procedure: (§1) To evaluate the antitumor activity of the synthesized soloxolone amides in brain tumor cells, the cytotoxicity of compounds 4–12, predicted as BBB-permeable (Figure 3), was further analyzed in human glioblastoma U87 and U118 cells, as well as human neuroblastoma KELLY and murine neuroblastoma Neuro2a cells.
(§2) The cells in the exponential growth phase were seeded in quadruplicate in 96-well plates at a density of 1 × 10^4 cells/well for HeLa, U87, U118, KELLY and Neuro2a cells; 1.5 × 10^4 cells/well for HuTu-80 cells; 2 × 10^4 cells/well for B16 cells; and 7 × 10^3 cells/well for hFF3 fibroblasts. Cells were incubated under standard conditions overnight followed by their treatment with the investigated compounds (1–20 µM) for 24 h. Then, 10 µL of MTT solution was added to the cells to a final concentration of 0.5 mg/mL and plates were placed under standard conditions for 3 h followed by an aspiration of MTT-containing medium and a dissolution of formazan crystals with 100 µL of DMSO. The absorbance of each well was read at test and reference wavelengths of 570 and 620 nm, respectively, on a Multiscan RC plate reader (Thermo LabSystems, Helsinki, Finland).
A general note: Formazan colour is commonly taken as a measure of viable cells.

For the next series, the system named is KELLY cells. As to the kind of experiment: MTT cytotoxicity assay, KELLY. In kind it is cell-based. Conditions: Homo sapiens, 24 h, read-out: IC50, Neuroblastoma, KELLY. On the procedure: as §1, §2
The next series has as its system U118 glioblastoma cells. As to the kind of experiment: Annexin V-APC/PI apoptosis assay, U118. Conditions: for apoptosis, % of U118 cells: 12 at 4 µM. It is filed as cell-based, human. On the procedure: To quantify the percentage of cells undergoing apoptosis, glioblastoma U87 and U118 cells were seeded in 6-well plates at 2.8 × 10^5 cells/well in complete growth medium and incubated at standard conditions overnight followed by treatment with 12 at 4 µM for 24 h. Thereafter, the cells were harvested by trypsinization (TrypLE Express (Gibco, USA)) and centrifugation at 400 g for 5 min, washed with PBS and stained with 5 µL of Annexin V-APC (Sony Biotechnology Inc., San Jose, CA, USA) and 10 µL of propidium iodide (PI) (Invitrogen, Waltham, MA, USA) for 15 min at room temperature in the dark. After the incubation time, the cells were analyzed using a NovoCyte Flow Cytometer (ACEA Biosciences Inc., San Diego, CA, USA). For each sample, 10,000 events were acquired.

Another series has as its system caspase-3 and -7. As to the kind of experiment: Caspase-3/-7 activation (CellEvent reagent, flow cytometry). It is filed as cell-based, human. The settings on record: U87 cells. As for the experimental part: To double check the pro-apoptotic activity of 12, its effect on the activation of executioner caspase-3 and -7, key markers of apoptosis, was evaluated in glioblastoma U87 cells.
U87 cells were plated at a density of 2.8 × 10^5 cells/well in 6-well plates and treated with 12 at 2 and 4 μM for 6 and 24 h. Then, the cells were collected by trypsinization and centrifugation, washed with PBS and stained with CellEvent™ Caspase-3/7 Green ReadyProbes™ Reagent (Molecular Probes, Eugene, OR, USA) according to the manufacturer’s manual. Briefly, harvested cells were resuspended in 200 μL of PBS containing the reagent (1 drop/mL) and incubated for 30 min at room temperature. After that, flow cytometry analysis of the cells was performed using the NovoCyte Flow Cytometer. In total, 10,000 events were acquired for each sample.
A general note: Flow cytometry measures light scatter and fluorescence of single cells or particles in a stream.

Series [2] concerns U87 cells. As to the kind of experiment: Cytotoxicity of 12 with chloroquine (MTT). The settings on record: U87, 12 with chloroquine 50 µM, 24 h. In kind it is cell-based. As for the experimental part:
Given that pentacyclic triterpenoids can induce tumor cell death not only by the apoptotic pathway but also by triggering autophagy, we next studied whether 12 stimulated autophagy in glioblastoma cells. For this, U87 and U118 cells were incubated with tryptamide 12 at toxic concentrations (2 or 4 µM) for 24 h followed by cell staining with monodansylcadaverine (MDC), a fluorescent dye specifically labeling autophagosomes. […] Considering that autophagy can be associated not only with cell death but also with cytoprotection, its role in the cytotoxicity of 12 in glioblastoma cells was further studied.
In order to evaluate whether autophagy plays an important role in compound 12-induced glioblastoma cell death, U87 cells were seeded in quadruplicate at a density of 1 × 10^4 cells/well in 96-well plates, incubated overnight under standard conditions and co-treated with 12 at 1–5 μM and chloroquine (CQ) at 50 μM for 24 h. Then, cell viability was measured using an MTT test and the curves of cytotoxicity of 12 in the presence or absence of CQ were compared.

For series [3], the system named is U87 cells. As to the kind of experiment: Mitochondrial mass, MitoTracker Green. The settings on record: 24 h. It is filed as cell-based, human. As for the experimental part:
Next, to evaluate whether the observed compound 12-driven disturbance of mitochondrial homeostasis in glioblastoma cells involved an alteration in mitochondrial abundance, U87 cells were treated with 12 at 2 and 4 µM for 24 h and stained with MitoTracker Green, a fluorescent probe accumulated in mitochondria ΔψM-independently. […] The obtained results agree well with published data: Yang et al. and Gibellini et al. found a similar increase in mitochondrial mass in RAW264.7 macrophages and colon carcinoma RKO cells treated with CDDO-Im and CDDO, respectively. We suppose that the observed triterpenoid-induced mitogenesis in glioblastoma cells is mediated by compensatory mechanisms in response to compound 12-triggered mitochondrial stress and that it plays a cytoprotective role—high mitochondrial mass is known to be highly correlated with chemotherapy-driven redundant production of reactive oxygen species (ROS) in tumor cells and to underlie their chemoresistance.
U87 cells were seeded at a density of 2.8 × 10^5 cells/well in 6-well plates and incubated overnight, followed by their treatment with 12 at 2 and 4 µM for 24 h. […] Thereafter, the cells were washed twice with PBS and analyzed by flow cytometry. In total, 10,000 events were recorded for each sample.

The test system of another series is U118 cells. As to the kind of experiment: Scratch assay (2D migration). The settings on record: U118, 12 at 100 nM, 48 h. It is filed as cell-based, human. As for the experimental part: To evaluate the ability of tryptamide 12 to suppress the migration potential of glioblastoma cells, two independent approaches were undertaken, including assessment of cell movement on a 2D surface (scratch assay) and through a trans-well membrane (CIM-Plate).
To assess the 2D motility of glioblastoma cells, U118 cells were seeded in triplicate in 6-well plates at a density of 8 × 10^5 cells/well and cultured to 80% confluence. Thereafter, the cell monolayers were scratched with 10 µL pipette tips and washed twice with PBS to remove floating cells and cell debris and treated with 12 at 100 nM for 48 h. At 0 h and 48 h, the scratched cell monolayers were imaged using a Primo Vert microscope with phase contrast optics (ZEISS, Oberkochen, Germany) equipped with a AxioCam ERc5s camera (ZEISS, Oberkochen, Germany). The wound closure rate was calculated using ImageJ software. In total, 4–5 regions on a single scratch were analyzed.

Broadly, the IC50 is the concentration that gives 50% inhibition.

SMILES strings stand for the structures.

For the molecule `CC1(C)C(=O)C(C#N)=C[C@]2(C)C3=CC(=O)[C@@H]4[C@@H]5C[C@@](C)(C(=O)NCCc6c[nH]c7ccccc67)CC[C@]5(C)CC[C@@]4(C)[C@]3(C)CC[C@@H]12` [compound 12], the IC50 amounted to 1900 ± 100 nM with U87 cells [1] and 1800 ± 100 nM with KELLY cells. Besides, the “apoptosis, % of U118 cells” value in the series with U118 glioblastoma cells (6 h) turned out to be 11.7%; in the series with U118 glioblastoma cells (18 h) it was 34.4%; with U118 glioblastoma cells (24 h), 41.5%. In addition, the “number of necrotic cells” value with U118 glioblastoma cells (U118, different samples (2 and 4 µM; 6–24 h)) was ≤ 10%. In addition, the “activation of caspase-3 and -7” value in the series with caspase-3 and -7 is “effectively activated caspase-3 and -7 in a time-dependent manner”. In the series on U87 cells [2], the “effect of chloroquine on cytotoxic activity of 12” value is “did not affect the cytotoxic activity”. Further, the “induction of mitochondrial biogenesis” value in the series on U87 cells [3] (U87, 12 at 2 µM) is “statistically insignificant”. Further, in the series with U87 cells [3] (U87, 12 at 4 µM), the “increase of mitochondrial mass compared to the control” value amounted to 1.6 fold. Further, the “inhibition of 2D migration compared to the control” value with U118 cells is listed as “two times”.

The record behind these values is PMC9145754, “Novel Soloxolone Amides as Potent Anti-Glioblastoma Candidates: Design, Synthesis, In Silico Analysis and Biological Activities In Vitro and In Vivo” (Pharmaceuticals, 2022).
